We go through seven molecules from patent US6413764B1, “Human metabotropic glutamate receptors, nucleic acids encoding same and uses thereof” (Merck & Co., Inc., priority 1993, dated 2002).

Test [1] has as its target T1, human mGluR5a receptor (Homo sapiens, UniProt P41594). The experiment in a line: Phosphatidylinositol hydrolysis (IP1) assay in HEK 293 cells transiently transfected with mGluR5a3. The test is classed as cell-based. The arrangement: expressed in transfected cells; host or cells: HEK 293 cells, transient CaPO4 transfection. As to conditions: 1 mM AP3. How it is done:
HEK 293 cells that had been transiently transfected with mGluR5a3 were plated in 24-well microtiter plates at a density of 8×10^5 cells/well. After the cells were allowed to settle and adhere to the bottom of the plate for a few hours, 2 μCi of [^3H]-myo-inositol (Amersham catalog # PT6-271, Arlington Heights, Ill.; specific activity=17.7 Ci/mmol) was added to each well and incubated overnight at 37° C. The next day, the cells were examined under a Nikon Diaphot inverted microscope to assess the health of the cells morphologically as well as to determine if the wells contained a confluent layer of cells. Media was then aspirated and the cells were washed twice with 0.5 ml Krebs bicarbonate buffer [117.9 mM NaCl, 4.72 mM KCl, 2.54 mM CaCl2, 1.18 mM MgSO4, 1.19 mM KH2PO4, 25 mM NaHCO3, 11.1 mM dextrose (equilibrated with 95% O2, 5% CO2, pH 7.4)]. The cells were incubated for 45 min. at room temperature. The buffer was then aspirated from each well and the cells were washed and incubated in 0.5 ml/well for 45 min at room temperature. The buffer was aspirated from each well, and the cells were then incubated for 20 min at 37° C. with 450 μl Krebs-bicarbonate buffer containing 10 mM LiCl instead of 10 mM NaCl (to block hydrolysis of IP1 to inositol and inorganic phosphate) and 10 mM unlabeled myo-inositol.
To begin treatment of the cells with metabotropic receptor-modulating compounds, 50 μl of Krebs-bicarbonate buffer (control) or 10× the final concentration of the compound was added to each well and the incubation was continued for 40 min. Incubation was terminated by addition of 1 ml ice-cold methanol to each well.
In order to isolate IP1 from the cells, the cells were removed from the plates by scraping with plastic pipette tips, and the cell suspension was transferred to 12×75 mm glass tubes. The tubes were thoroughly vortexed, and a 150-μl aliquot, i.e., one-tenth of the total volume, of each reaction mixture was transferred to another tube for protein determination. The water-soluble inositol phosphates were separated from the radiolabelled membrane phospholipids by extraction in 1 ml chloroform. The tubes were incubated at room temperature for 30 min before centrifugation at 500×g for 5 min at 4° C. The aqueous (top) layer containing the [^3H]-inositol phosphates was transferred to 10-ml syringes connected to Accell QMA SEP-PAK columns (Millipore; Calif.), which were attached to an Amersham Superseparator apparatus that was modified to allow collection into 20-ml scintillation vials. Water (10 ml) was added to the cartridge to remove [^3H]-inositol precursor, followed by 4 ml 0.02 M triethylammonium hydrogen carbonated buffer (TEAB, Fluka; N.Y.). To separately remove [^3H]-IP1, [^3H]-IP2 and [^3H]-IP3 from the cartridge, 4 ml of 0.1 M TEAB, 4 ml of 0.3 M TEAB and 4 ml of 0.4 M TEAB were sequentially added to the cartridge and the separate eluate fractions were collected in large scintillation vials. Ecolume cocktail (15 ml; ICN; California) was added to each vial for subsequent scintillation counting to determine the amount of each IP in the separate fractions. Protein concentration was determined using the Bio-Rad Protein Micro-Assay (Bio-Rad, Richmond, Calif.).

The target in test [2] is T1, human mGluR5a receptor. The experiment in a line: Automated fluorescence assay (fluo-3) in transiently transfected HEK 293 cells. The test is classed as cell-based. The note with it: cells transfected with mGluR5a2. Details: expressed in transfected cells; host or cells: HEK 293 cells, transient CaPO4 transfection. On the procedure: HEK 293 cells were transiently transfected with DNA encoding mGluR5a (constructs mGluR5a2 and mGluR5a3 and construct MMTV-hmGluR5a) receptors. Approximately 2×10^6 HEK cells were transiently transfected with 5-18 μg (or 0.18 μg in some transfections, see Example 3.C.2.) of the indicated plasmid according to standard CaPO4 transfection procedures [see Wigler et al. (1979) Proc. Natl. Acad. Sci. USA 76:1373-1376]. In addition, 0.5-2 μg (or 0.18 μg in some transfections, see Example 3.C.2) of plasmid pCMVβgal (Clontech Laboratories, Palo Alto, Calif.), which contains the Escherichia coli β-galactosidase gene fused to the CMV promoter, were co-transfected as a reporter gene for monitoring the efficiency of transfection. The transfectants were analyzed for β-galactosidase expression by direct staining of the product of a reaction involving β-galactosidase and the X-gal substrate [Jones (1986) EMBO 5:3133-3142]. Transfectants can also be analyzed for β-galactosidase expression by measurement of β-galactosidase activity [Miller (1972) in Experiments in Molecular Genetics, pp.352-355, Cold Spring Harbor Press].
HEK 293 cells that were transiently transfected with 5 μg of MMTV-hmGluR5A were co-transfected with 5 μg of pRShGR (ATCC accession no. 67200) which contains DNA encoding a glucocorticoid receptor operatively linked to the Rous Sarcoma virus (RSV) LTR promoter. Co-expression of glucocorticoid receptors in these cells should insure that induction of expression of the MMTV promoter-mGluR5a DNA occurs upon addition of glucocorticoid (e.g., dexamethasone) to the cells.
Untransfected HEK 293 cells (or HEK 293 cells transiently transfected with pCMV-T7-3) and HEK 293 cells that had been transfected with mGluR5a-encoding DNA were plated in the wells of a 96-well microtiter dish (Nunc Catalog No. 1-6708, distributed by Alameda Industries, Escondido, Calif.) that had been precoated with poly-L-lysine at a density of 2×10^5 cells/well and loaded with fluo-3 by incubation for 2 hours at 20° C. in a medium containing 20 μM fluo-3, 0.2% Pluronic F-127 in HBS (125 mM NaCl, 5 mM KCl, 1.8 mM CaCl2, 0.62 MM MgCl2, 20 mM glucose, 20 mM HEPES, pH 7.4). The cells were then washed with assay buffer (i.e. HBS). The microtiter dish was then placed into a fluorescence plate reader (e.g., Fluoroskan II, Lab Products International, Ltd., Raleigh, N.C.), and the basal fluorescence of each well was measured and recorded before addition of metabotropic receptor-modulating compounds such as quisqualate, glutamate, trans-ACPD (1-amino-cyclopentane-1,3-dicarboxylic acid), 1S,3R-ACPD, AP3 (2-amino-3-phosphonopropionate) AP5 (2-amino-5-phosphonopentanoate), and CNQX (6-cyano-7-nitroquinoxaline-2,3-dione) to the wells. The fluorescence of the wells was monitored repeatedly (75 readings at 0.63-sec intervals) following addition of agonist.

Test [3] relates to olfactory cyclic nucleotide-gated channel. Put plainly: Single-cell video imaging of [Ca++]i in HEK293 cells transfected with pCMV-OCNA. As to conditions: 1 mM IBMX. The test is classed as cell-based. On the procedure: The transfectants were also analyzed by single-cell video imaging of internal calcium levels ([Ca^++]i). This method allows analysis of cyclic nucleotide-gated channel activity by measurement of intracellular calcium levels, which change with the amount of calcium influx through the channel, as regulated by cyclic nucleotide activation of the channel. The imaging assay was conducted essentially as described in Example 3.C.1.b., with some modifications. After dye loading, the cells were examined using a Zeiss Axiovert microscope and 100 W mercury lamp, a Dage intensified CCD camera, and Image-1 hardware and software for image processing. The software controlled the alternate excitation of the cells at 350 and 385 nm (typically every 5 seconds) through a 20×1.3 N.A. oil immersion objective. Light emitted at greater than 510 nm was collected by the CCD camera, digitized, and 350 and 385 nm excitation images were background-subtracted before calculating the 350/385 nm intensity ratio.
For quantitative analysis, the average 350/385 ratio value in a 12 by 12 pixel region over each cell was calculated by the software for each ratio image in an experiment and imported into a spreadsheet for further analysis and graphing. […]
In these experiments, the HEK293 cell transfectants were exposed to agents which increase intracellular cAMP levels and monitored for subsequent changes in [Ca^++]i. […]

In test [4] the target is olfactory cyclic nucleotide-gated channel (Rattus norvegicus, UniProt Q00195). As to conditions: 1 mM cAMP; membrane potential ramped from −100 to +100 mV in 2 seconds; one patch.
Method: HEK293 cells were grown in monolayers (approximately 2×10^6 cells per 10 cm poly-D-lysine-coated plate) in Dulbecco's modified Eagle's medium (DMEM; Gibco) containing 5% defined supplemented calf serum (Hyclone) including 100 U/ml penicillin and 100 μg/ml streptomycin sulfate. […] Transfection efficiencies, as determined by measuring β-galactosidase activity, were 50-70%.
HEK cells transfected with olfactory cyclic nucleotide-gated channel DNA were incubated 24-48 hours before testing for function. The activity of the channels was first assessed electrophysiologically using inside-out membrane patches pulled from the transfected cells so that the concentration of cAMP reaching the cytoplasmic face could be controlled (see, e.g., Single-Channel Recording, Sakmann and Neher, eds., Plenum Press, N.Y. (1983)). […]
For test [5], the system named is endogenous G-protein-coupled muscarinic acetylcholine receptors. Put plainly: Fluorescence imaging assay (fura-2), response to muscarinic agonist. The test is classed as cell-based, human. The note with it: 1 mM; transfectants and untransfected HEK 293 cells. On the procedure:
HEK 293 cells that had been transiently transfected with mGluR5a3 and untransfected HEK 293 cells (control) were analyzed by digital video imaging in order to visualize metabotropic receptor-mediated changes in intracellular Ca^++ concentration. Transfectants (4×10^5 cells per 35-mm culture dish with glass-insert bottom) were loaded with fura-2 by exposing the cells to 1 μM fura-2 (acetoxymethyl ester) for 25 min at room temperature in the dark. The cells were then washed three times with DMEM and four times with Ringer's (160 mM NaCl, 5 mM KCl, 2 mM CaCl2, 1 mM MgCl2, 11 mM glucose, 5 mM HEPES, pH 7.3) solution.
The transfectants and untransfected cells were then placed on the stage of an Axiovert 100 TV inverted microscope (Zeiss, Oberkochren, Germany) equipped with a 150 W xenon lamp as the UV light source. […]
The uncalibrated fura-2 ratios were used to generate pseudocolor images with purple corresponding to resting intracellular Ca^++ concentration (˜100 nM) and red to high intracellular Ca^++ concentration (˜1 μM). For quantitative analysis, the average ratio value in a 12-by-12 pixel region over each cell was calculated by the software for each ratio image in an experiment and imported into a spreadsheet for further analysis and graphing.

Test [6] concerns the target T1, human mGluR5a receptor. The experiment in a line: [3H]-glutamate binding to membranes of HEK 293 cells transfected with mGluR5a3. Details: expressed in transfected cells; host or cells: HEK 293 cells, transient CaPO4 transfection. As to conditions: 200 μg of membranes, 100 nM [3H]-glutamate.
Method: In order to prepare membranes from HEK 293 cells transfected. with mGluR5a-encoding DNA or pUC19 (negative control), cells were scraped from the tissue culture plates, and the plates rinsed with 5 ml of PBS (phosphate-buffered saline: 137 mM NaCl, 2.7 mM KCl, 10 mM Na2HPO4, 1.7 mM KH2PO4). The cells were centrifuged at low speed in a table-top centrifuge, and the cell pellet was rinsed with PBS. The cell pellet was resuspended in 20 volumes of 50 mM Tris-HCl containing 0.5 mM PMSF, pH 7.6. The cells were homogenized on ice in a Dounce (teflon/glass) homogenizer using 10-20 strokes. The homogenate was centrifuged at 120,000×g for 30 min. at 4° C. The final membrane pellet was resuspended in 50 mM Tris-HCl containing 0.5 mM PMSF, pH 7.6. […] The protein concentration was determined using the method of Bradford [(1976) Anal. Biochem. 72:248).
Specific binding of [^3H]-glutamate to membranes prepared from HEK 293 cells transfected with mGluR5a-encoding DNA or pUC19 was determined essentially as described for measuring binding to rat brain membranes with minor modifications. […] NMDA, AMPA and kainate were excluded from the assay mixture when HEK 293 cell membranes were being analyzed for [^3H]-glutamate binding.
Specific binding of [^3H]-glutamate to membranes prepared from HEK 293 cells transfected with mGluR5a3 or pUC19 was measured using 200 μg of membranes and 100 nM [^3H]-glutamate.

T1 sequence (P41594 21-1180 isoform P41594-2 limits assumed): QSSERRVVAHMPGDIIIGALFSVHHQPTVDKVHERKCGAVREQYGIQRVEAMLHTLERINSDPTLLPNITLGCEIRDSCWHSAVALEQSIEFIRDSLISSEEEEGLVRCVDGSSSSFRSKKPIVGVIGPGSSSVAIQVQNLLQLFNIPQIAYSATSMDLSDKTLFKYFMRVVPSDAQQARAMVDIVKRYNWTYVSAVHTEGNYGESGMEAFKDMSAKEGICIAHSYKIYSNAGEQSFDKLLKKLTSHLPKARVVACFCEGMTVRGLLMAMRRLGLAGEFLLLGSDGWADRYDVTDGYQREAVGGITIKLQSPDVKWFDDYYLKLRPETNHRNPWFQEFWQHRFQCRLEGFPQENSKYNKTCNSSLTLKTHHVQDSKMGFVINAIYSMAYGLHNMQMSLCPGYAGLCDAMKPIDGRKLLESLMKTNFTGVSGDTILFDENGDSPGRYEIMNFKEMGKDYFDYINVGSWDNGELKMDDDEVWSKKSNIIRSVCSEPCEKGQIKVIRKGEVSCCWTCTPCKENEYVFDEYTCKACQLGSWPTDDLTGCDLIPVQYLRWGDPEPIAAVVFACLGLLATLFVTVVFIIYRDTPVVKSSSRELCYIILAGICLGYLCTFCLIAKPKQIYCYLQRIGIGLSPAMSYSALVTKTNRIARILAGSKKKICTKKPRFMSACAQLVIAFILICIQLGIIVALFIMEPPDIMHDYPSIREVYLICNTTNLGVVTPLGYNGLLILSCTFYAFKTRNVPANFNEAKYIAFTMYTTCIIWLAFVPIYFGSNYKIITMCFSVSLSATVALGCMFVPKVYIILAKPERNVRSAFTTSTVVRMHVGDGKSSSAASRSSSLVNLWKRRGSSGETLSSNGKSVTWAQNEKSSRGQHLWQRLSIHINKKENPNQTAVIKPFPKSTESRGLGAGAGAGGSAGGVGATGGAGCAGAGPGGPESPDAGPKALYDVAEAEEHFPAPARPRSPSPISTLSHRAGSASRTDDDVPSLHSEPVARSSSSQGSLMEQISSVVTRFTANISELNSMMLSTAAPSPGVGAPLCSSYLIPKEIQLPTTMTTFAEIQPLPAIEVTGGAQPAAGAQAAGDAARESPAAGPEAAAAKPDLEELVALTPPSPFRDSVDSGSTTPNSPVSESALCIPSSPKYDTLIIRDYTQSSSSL
Chain of olfactory cyclic nucleotide-gated channel (Rattus norvegicus, UniProt Q00195) (Q00195 whole entry): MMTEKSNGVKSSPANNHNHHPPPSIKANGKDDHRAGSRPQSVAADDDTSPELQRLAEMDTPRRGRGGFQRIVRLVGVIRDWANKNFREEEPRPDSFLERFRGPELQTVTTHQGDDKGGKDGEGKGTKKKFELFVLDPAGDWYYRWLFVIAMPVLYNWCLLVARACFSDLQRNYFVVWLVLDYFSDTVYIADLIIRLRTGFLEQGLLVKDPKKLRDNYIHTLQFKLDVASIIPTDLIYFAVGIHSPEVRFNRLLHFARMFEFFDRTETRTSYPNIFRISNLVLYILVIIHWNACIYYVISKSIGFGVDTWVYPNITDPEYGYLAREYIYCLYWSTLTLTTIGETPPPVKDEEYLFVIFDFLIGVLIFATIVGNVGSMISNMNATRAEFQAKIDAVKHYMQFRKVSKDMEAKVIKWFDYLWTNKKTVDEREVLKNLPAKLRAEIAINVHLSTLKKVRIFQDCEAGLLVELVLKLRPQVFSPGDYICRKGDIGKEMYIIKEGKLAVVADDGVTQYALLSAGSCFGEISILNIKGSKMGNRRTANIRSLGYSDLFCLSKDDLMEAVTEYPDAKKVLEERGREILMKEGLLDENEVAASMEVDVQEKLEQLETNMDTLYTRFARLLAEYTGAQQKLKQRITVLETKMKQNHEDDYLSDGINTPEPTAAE

In the case of `NC(CP(=O)(O)O)C(=O)O` (centres unmarked) [AP3, 2-amino-3-phosphonopropionate], the “effect on quisqualate-induced increase in IP1 levels” value in test [1] is “not affected”. Moreover, in test [2], the “inhibition of glutamate-, quisqualate- or trans-ACPD-stimulated fluorescence increases” value is recorded as “Neither of these compounds (AP3, AP5 or CNQX) inhibited”.

As to `NC(CCCP(=O)(O)O)C(=O)O` (centres unmarked) [AP5, 2-amino-5-phosphonopentanoate], the “inhibition of glutamate-, quisqualate- or trans-ACPD-stimulated fluorescence increases” value in test [2] is “Neither of these compounds (AP3, AP5 or CNQX) inhibited”.

Consider `N#Cc1cc2c(cc1[N+](=O)[O-])=NC(=O)C(=O)N=2` [CNQX, 6-cyano-7-nitroquinoxaline-2,3-dione], for which the “inhibition of glutamate-, quisqualate- or trans-ACPD-stimulated fluorescence increases” value in test [2] was “Neither of these compounds (AP3, AP5 or CNQX) inhibited”.

`CC(C)Cn1c(=O)n(C)c(=O)c2[nH]cnc21` [IBMX, 3-isobutyl-1-methylxanthine]: the “change in [Ca++]i” value in test [3] is given as “more significant increase”.

With `Nc1ncnc2c1ncn2[C@@H]1O[C@@H]2COP(=O)(O)O[C@H]2[C@H]1O` [cAMP, cyclic AMP], in test [4], the “current in inside-out patch” value is on record as “a current was elicited”.

Consider `C[N+](C)(C)CCOC(N)=O.[Cl-]` [carbamylcholine], for which the “intracellular Ca++ concentration change” value in test [5] was “detectable increase in the intracellular Ca^++ concentration of the majority of the cells”.

Turning to [^3H]-glutamate, in test [6], the “specific binding versus membranes of pUC19-transfected cells” value is given as “significantly higher”.
